This note sets out measurements from patent publication US10759777B2, “Carbazole-containing amides, carbamates, and ureas as cryptochrome modulators” (Synchronicity Pharma, Inc., priority 2014, dated 2020).

In assay [1] the target is isolated FAD-binding domain of human CRY1 protein (hCRY1) (Homo sapiens (Human), UniProt Q16526). Put plainly: Thermal shift binding assay (differential scanning fluorimetry). As to the method: Binding of compounds to the isolated FAD-binding domain of human CRY1 protein (hCRY1) was determined using a differential scanning fluorimetry (‘thermal shift’) assay (Pantoliano et al. (2001) J Biomol Screening 6, 429; Niesen et al. (2007) Nature Protocols 2, 2212). The FAD-binding domain of hCRY1 (amino acid residues 1-494) with a C-terminal Myc-DDK tag (FADBD), was produced by transient transfection of HEK293T cells (Catalog # CRL-3216, American Type Culture Collection) and purified by anti-FLAG affinity chromatography (Catalog # A2220, Sigma-Aldrich). FADBD (0.5 μg per well) was incubated with dilutions of compounds in DMSO (5% DMSO final concentration in reaction) in 17.5 μl Tris-buffered saline (TBS) for 10 minutes on ice, then 2.5 μl of 8× Sypro-Orange Dye (Life Technologies) was added to each well. Triplicate wells were assayed for each compound concentration. The melting temperatures were measured in an ABI7500 quantitative PCR instrument using the melt curve mode with a thermal profile of 2 minutes at 25° C., followed by a ramp rate of 1° C./minute up to 99° C. The melting temperature for each well was determined from the first derivative of the melt curve. The change in melting temperature (ΔTm) was obtained by subtraction of the melting temperature of the FADBD in 5% DMSO alone.

In the next assay the test system is C57/Bl6J DIO mice. Put plainly: Increasing dosages of Compound 72 in diet-induced obesity (DIO) mouse model. Format: in vivo. Particulars: 10, 30, 100 mg/kg PO QD 7 days. The text has this:
Male C57/Bl6J DIO mice were obtained from The Jackson Laboratory (Sacramento, Calif.). […] Animals were accustomed to these conditions for at least 2 weeks before experimentation and used at approximately 24 weeks of age.
Significance was accepted when p<0.05.
Male C57/Bl6J DIO mice were obtained from The Jackson Laboratory (Sacramento, Calif.). […] Animals were accustomed to these conditions for at least 2 weeks before experimentation and used at approximately 26 weeks of age.

The subject of assay [2] is rat model of cortisone-induced insulin resistance. Description: Cortisone induced insulin resistance in rats. It counts as in vivo. As to conditions: 50 mg/kg po with cortisone 30 mg/kg sc. As to the method:
Animals were dosed with cortisone (30 mg/kg sc qd) in combination with test compounds for 6 days and then terminated 27 hours after the final dose of cortisone. A reference standard (Mifepristone) was also included. Cortisone 21-acetate (Sigma C-3130) was supplied by RenaSci and administered using a dose volume of 5 ml/kg via the subcutaneous route as a fine suspension in 1% methylcellulose. […] Mifepristone (Sigma M8046) was provided by RenaSci.
Glucose and insulin determinations were performed on plasma samples obtained from a tail vein bleed taken after a 12 h fast, approximately 27 h after the last cortisone dose. Animals were then terminated and a terminal (cardiac) blood sample taken from which plasma was prepared.
Thirty four male Sprague Dawley rats (weight range 200-250 g) were ordered from Charles River, Margate, Kent, UK. […] Subsequently, animals underwent a 3 day baseline period during which they were dosed once daily with vehicle at t=0 h (07:00). […] Body weight was recorded immediately before dosing began at 07:00 (t=0 h).
On Day 6 of dosing rats were fasted for 12 h beginning at 22:30 (timed to coincide with the Day 7 termination). […] At 10:30 on Day 7, 27 h after the final dose of cortisone, a blood sample (300 μl) was taken from the lateral tail vein into tubes containing EDTA (Sarstedt 16.444). The blood was centrifuged and resultant plasma aliquot stored at −75° C. The animals were euthanized by CO2 asphyxiation followed by cervical dislocation. Terminal blood (approximately 10 ml) was collected by cardiac puncture into tubes containing EDTA (Sarstedt 5 ml 32.332) and then centrifuged and plasma stored at −75° C. The tail vein plasma was analyzed for glucose (n=2) using a commercial clinical reagent (Thermoelectron Infinity glucose reagent (TR15421) and for insulin (n=1) using the Mercodia ultrasensitive rat insulin rat ELISA (10-1251-10).
Plasma glucose and insulin were analyzed by robust regression or general linear model with treatment as a factor and bleeding order and baseline body weight as covariates. A log transformation was used if appropriate. Appropriate multiple comparison tests (two-tailed) were used to determine significant differences from the vehicle group and from the Cortisone group. P<0.05 was considered to be statistically significant.

Chain of isolated FAD-binding domain of human CRY1 protein (hCRY1) (Q16526 1-494): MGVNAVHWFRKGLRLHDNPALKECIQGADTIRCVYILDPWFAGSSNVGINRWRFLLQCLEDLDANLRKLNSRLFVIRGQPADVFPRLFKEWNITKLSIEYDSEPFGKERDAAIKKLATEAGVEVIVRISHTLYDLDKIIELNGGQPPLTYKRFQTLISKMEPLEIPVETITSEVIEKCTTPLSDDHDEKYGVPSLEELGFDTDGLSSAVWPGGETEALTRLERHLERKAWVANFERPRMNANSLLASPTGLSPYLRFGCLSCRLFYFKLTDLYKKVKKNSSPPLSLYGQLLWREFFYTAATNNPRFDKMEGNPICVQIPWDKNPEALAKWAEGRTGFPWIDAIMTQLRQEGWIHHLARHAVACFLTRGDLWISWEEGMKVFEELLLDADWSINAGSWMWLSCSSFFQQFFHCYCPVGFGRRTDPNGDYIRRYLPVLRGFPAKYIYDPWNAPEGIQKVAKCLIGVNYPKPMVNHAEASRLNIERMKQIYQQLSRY

As for `O=C1NCCN1CC(O)Cn1c2ccc(F)cc2c2cc(F)ccc21` (stereo not drawn) [Compound 72, 1-(3-(3,6-difluoro-9H-carbazol-9-yl)-2-hydroxypropyl)imidazolidin-2-one], in assay [1], the “change in melting temperature (ΔTm) of hCRY1 FADBD” value is listed as “dose-dependent increase”. Besides, in the assay with C57/Bl6J DIO mice, the “OGTT glucose excursion following a glucose load” value is “reduction in glucose excursion”. The fasted plasma insulin in assay [2] amounted to 5.24 ± 1.11 ng/mL.
